Experiments:
[1] = target: T1, AT4 receptor (Mus musculus, UniProt Q8C129); test: mouse 4-plate model of anxiety, AT4 alone (Example 1); assay type: in vivo; conditions: acute; for number of punished crossings compared to vehicle: subcutaneous, 30 min before test, male Swiss Webster mice
T1 construct: from tissue; host or cells: whole living Swiss Webster mouse (in vivo behavioural test)
T1 sequence (Q8C129 1-1025): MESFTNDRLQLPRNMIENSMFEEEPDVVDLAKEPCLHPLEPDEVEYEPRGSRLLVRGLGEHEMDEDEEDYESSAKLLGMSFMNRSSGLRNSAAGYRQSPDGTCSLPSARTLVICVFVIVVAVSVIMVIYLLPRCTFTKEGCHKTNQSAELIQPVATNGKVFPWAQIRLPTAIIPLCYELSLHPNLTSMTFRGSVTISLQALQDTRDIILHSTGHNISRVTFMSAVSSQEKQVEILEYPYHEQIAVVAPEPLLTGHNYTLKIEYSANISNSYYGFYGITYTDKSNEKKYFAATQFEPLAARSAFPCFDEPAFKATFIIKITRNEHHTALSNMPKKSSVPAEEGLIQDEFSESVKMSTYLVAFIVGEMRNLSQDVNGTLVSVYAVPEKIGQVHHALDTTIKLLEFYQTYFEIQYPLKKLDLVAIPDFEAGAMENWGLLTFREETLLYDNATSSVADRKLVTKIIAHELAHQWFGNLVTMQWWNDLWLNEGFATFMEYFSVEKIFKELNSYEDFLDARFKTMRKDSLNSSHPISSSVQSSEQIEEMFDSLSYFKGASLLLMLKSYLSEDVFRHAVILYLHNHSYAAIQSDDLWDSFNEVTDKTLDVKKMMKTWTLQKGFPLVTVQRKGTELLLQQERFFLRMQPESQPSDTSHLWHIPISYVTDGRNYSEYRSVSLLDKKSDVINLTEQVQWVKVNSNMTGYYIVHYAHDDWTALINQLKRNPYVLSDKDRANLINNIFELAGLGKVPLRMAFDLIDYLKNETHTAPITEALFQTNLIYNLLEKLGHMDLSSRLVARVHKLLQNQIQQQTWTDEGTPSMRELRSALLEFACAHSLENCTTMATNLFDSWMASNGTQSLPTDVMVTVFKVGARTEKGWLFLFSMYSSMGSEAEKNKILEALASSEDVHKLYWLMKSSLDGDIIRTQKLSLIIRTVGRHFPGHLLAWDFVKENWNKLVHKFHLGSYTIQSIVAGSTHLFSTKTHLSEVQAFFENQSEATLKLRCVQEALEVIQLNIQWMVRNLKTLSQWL
Method: Male Swiss Webster mice weighing 18-24 g were used in the 4 plate studies. Animals were housed in groups of 15 in an AAALAC-accredited facility (Wyeth Research, Princeton, N.J.) with food and water available ad libitum. Animals were maintained on a 12-hour light/dark cycle (lights on at 0600) with all studies performed during the light phase. On the day of experiments, mice were injected with AT4 (0, 1, 3 and 10 mg/kg) 30 minutes before the start of the study. Initially, mice were individually placed in a plexiglass cage (18×25×16 cm) with a floor consisting of four rectangular metal plates (8×11 cm), which are wired to a shock generator (Med Associates). In each experiment, mice were placed into the chamber and given an 18-sec habituation period, which was followed by a 1-min test session. After the habituation period, an electric shock (0.8 mA) was delivered for 3.0 sec when mice crossed from one plate to another. The crossing from one plate to the next is referred to as a “punished crossing.” The number of punished crossings during a 1-min test period was recorded by a computer. The mean number of punished crossings for each group was expressed as a percentage of the value observed in the control animals. Data were subjected to an overall one-way analysis of variance (ANOVA) and post-hoc comparisons were made by a contrast using least squares. Significant differences in treatment occurred when p<0.05 compared to vehicle.

[2] = target: T2, oxytocin receptor (Mus musculus, UniProt P97926); test: mouse 4-plate model, AT4 with the oxytocin receptor antagonist WAY-162720 (Example 2); assay type: in vivo; conditions: AT4 3 mg/kg alone, acute, 30 min before test
T2 construct: from tissue; host or cells: whole living Swiss Webster mouse (in vivo behavioural test)
T2 sequence (P97926 1-388): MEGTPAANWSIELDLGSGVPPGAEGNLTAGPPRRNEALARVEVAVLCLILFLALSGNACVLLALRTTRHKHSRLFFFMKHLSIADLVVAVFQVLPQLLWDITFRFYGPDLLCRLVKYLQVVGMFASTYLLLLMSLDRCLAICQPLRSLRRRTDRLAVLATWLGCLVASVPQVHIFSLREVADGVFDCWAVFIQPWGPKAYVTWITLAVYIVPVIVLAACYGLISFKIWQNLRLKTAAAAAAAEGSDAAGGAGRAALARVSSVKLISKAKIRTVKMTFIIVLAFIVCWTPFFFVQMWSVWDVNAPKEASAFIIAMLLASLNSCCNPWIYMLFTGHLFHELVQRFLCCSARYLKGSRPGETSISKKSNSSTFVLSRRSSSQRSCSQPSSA
Method: Male Swiss Webster mice weighing 18-24 g were used in the 4 plate studies. […] Animals were maintained on a 12-hour light/dark cycle (lights on at 0600) with all studies performed during the light phase. On the day of experiments, mice were injected with AT4 (0, 1, 3 and 10 mg/kg) 30 minutes before the start of the study. Initially, mice were individually placed in a plexiglass cage (18×25×16 cm) with a floor consisting of four rectangular metal plates (8×11 cm), which are wired to a shock generator (Med Associates). In each experiment, mice were placed into the chamber and given an 18-sec habituation period, which was followed by a 1-min test session. After the habituation period, an electric shock (0.8 mA) was delivered for 3.0 sec when mice crossed from one plate to another. The crossing from one plate to the next is referred to as a “punished crossing.” The number of punished crossings during a 1-min test period was recorded by a computer. […] Data were subjected to an overall one-way analysis of variance (ANOVA) and post-hoc comparisons were made by a contrast using least squares. Significant differences in treatment occurred when p<0.05 compared to vehicle.
For these studies, the same 4-plate procedures were used as described in Example 1, above. […] A 3-sec time followed the delivery of each shock and a computer recorded the number of punished crossings during a 1-min test period. […]

**Q.** What does the source list for `CC[C@H](C)[C@H](NC(=O)[C@H](Cc1ccc(O)cc1)NC(=O)[C@@H](N)C(C)C)C(=O)N[C@@H](Cc1cnc[nH]1)C(=O)N1CCC[C@H]1C(=O)N[C@@H](Cc1ccccc1)C(=O)O` [AT4, Val-Tyr-Ile-His-Pro-Phe]?
**A.** number of punished crossings compared to vehicle ([1]; AT4 3 mg/kg): significantly (p<0.05) increased; number of punished crossings compared to vehicle ([1]; AT4 10 mg/kg): significantly (p<0.05) increased; anxiolytic-like effect in the 4-plate model, dose dependence ([1]; AT4 1, 3 and 10 mg/kg subcutaneous, FIG. 1): dose-dependent; number of punished crossings compared to vehicle control [2]: increased

From US20070111929A1, “Methods for the treatment of anxiety and for identification of anxiolytic agents” (Wyeth, priority 2005, published 2007)
